Test results taken from PubChem BioAssay AID248 (DTP/NCI, 2004).
Toxic doses and inconclusive results are not listed. No stated cut-off is given here; in the data, active means T/C of 150% or more; inactive means T/C below 125%.

Test system: L1210 leukemia ip in BDF1 mice, survival T/C
Test: NCI In Vivo Anticancer Drug Screen. Data for tumor model L1210 Leukemia (intraperitoneal) in B6D2F1 (BDF1) mice
Conditions: endpoint: mean survival time, higher = longer survival
Summary of the method: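 Survival endpoint. Drug-treated group vs vehicle group, expressed as T divided by C. Tumor passaged by transplantation.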

[1] = dose: 100.0 mg/kg/injection, schedule: Q01DX009 (ip), vehicle: saline
[2] = dose: 100.0 mg/kg/injection, schedule: Q01DX009 (ip), vehicle: saline with Tween-80
[3] = dose: 200.0 mg/kg/injection, schedule: Q01DX009 (ip), vehicle: saline with Tween-80
[4] = dose: 100.0 mg/kg/injection, schedule: Q01DX009 (ip), vehicle: Klucel (hydroxypropylcellulose) (HPC)
[5] = dose: 100.0 mg/kg/injection, schedule: Q04DX003 (ip), vehicle: Klucel (hydroxypropylcellulose) (HPC)
[6] = dose: 200.0 mg/kg/injection, schedule: Q04DX003 (ip), vehicle: Klucel (hydroxypropylcellulose) (HPC)
[7] = dose: 400.0 mg/kg/injection, schedule: Q04DX003 (ip), vehicle: Klucel (hydroxypropylcellulose) (HPC)
[8] = dose: 200.0 mg/kg/injection, schedule: Q01DX009 (ip), vehicle: Klucel (hydroxypropylcellulose) (HPC)
[9] = dose: 400.0 mg/kg/injection, schedule: Q01DX009 (ip), vehicle: Klucel (hydroxypropylcellulose) (HPC)

Measured: T/C

OC1c2ccccc2-c2c(F)c(F)c(F)c(F)c21 (configuration not stated)
inactive: dose: 50.0 mg/kg/injection, schedule: Q01DX001 (ip), vehicle: carboxymethylcellulose (CMC) 96 % of control | dose: 100.0 mg/kg/injection, schedule: Q01DX001 (ip), vehicle: carboxymethylcellulose (CMC) 97 % of control | dose: 200.0 mg/kg/injection, schedule: Q01DX001 (ip), vehicle: carboxymethylcellulose (CMC) 94 % of control | dose: 400.0 mg/kg/injection, schedule: Q01DX001 (ip), vehicle: carboxymethylcellulose (CMC) 111 % of control

O=C(/C=C/c1ccc(Cl)cc1)NCC(O)CO (configuration not stated)
inactive: dose: 150.0 mg/kg/injection, schedule: Q04DX003 (ip), vehicle: water 100 % of control | dose: 300.0 mg/kg/injection, schedule: Q04DX003 (ip), vehicle: water 105 % of control | dose: 600.0 mg/kg/injection, schedule: Q04DX003 (ip), vehicle: water 102 % of control

CC(=O)Nc1ccc2nc3ccc(NC(C)=O)cc3[n+](-c3ccccc3)c2c1
active: dose: 10.0 mg/kg/injection, schedule: Q01DX015 (ip), vehicle: propolene glycol 152 % of control | dose: 12.5 mg/kg/injection, schedule: Q01DX Z (ip), vehicle: methylcellulose (MC) 150 % of control | dose: 20.0 mg/kg/injection, schedule: Q#A X Z (ip), vehicle: saline 180 % of control | dose: 25.0 mg/kg/injection, schedule: Q01DX Z (ip), vehicle: methylcellulose (MC) 166 % of control | dose: 31.25 mg/kg/injection, schedule: Q01DX009 (ip), vehicle: saline 164 % of control | dose: 31.3 mg/kg/injection, schedule: Q01DX009 (ip), vehicle: saline 161 % of control | dose: 40.0 mg/kg/injection, schedule: Q01DX015 (ip), vehicle: propolene glycol 172 % of control | dose: 40.0 mg/kg/injection, schedule: Q01DX Z (ip), vehicle: saline 172 % of control | dose: 50.0 mg/kg/injection, schedule: Q01DX009 (ip), vehicle: saline 162 % of control | [1] 206 % of control | dose: 120.0 mg/kg/injection, schedule: Q03DX Z (ip), vehicle: saline 159 % of control
inactive: dose: 0.25 mg/kg/injection, schedule: Q01DX Z (ip), vehicle: methylcellulose (MC) 105 % of control | dose: 0.5 mg/kg/injection, schedule: Q01DX Z (ip), vehicle: methylcellulose (MC) 121 % of control | dose: 0.75 mg/kg/injection, schedule: Q01DX009 (ip), vehicle: saline 111 % of control | dose: 1.25 mg/kg/injection, schedule: Q#A X Z (ip), vehicle: saline 89 % of control | dose: 1.5 mg/kg/injection, schedule: Q01DX009 (ip), vehicle: saline 114 % of control | dose: 2.5 mg/kg/injection, schedule: Q01DX Z (ip), vehicle: saline 98 % of control | dose: 2.5 mg/kg/injection, schedule: Q#A X Z (ip), vehicle: saline 109 % of control | dose: 3.0 mg/kg/injection, schedule: Q01DX009 (ip), vehicle: saline 122 % of control | dose: 4.4 mg/kg/injection, schedule: Q07DX Z (ip), vehicle: saline 105 % of control | dose: 5.0 mg/kg/injection, schedule: Q01DX Z (ip), vehicle: saline 118 % of control | dose: 5.0 mg/kg/injection, schedule: Q#A X Z (ip), vehicle: saline 123 % of control | dose: 6.0 mg/kg/injection, schedule: Q01DX009 (ip), vehicle: saline 120 % of control | dose: 7.5 mg/kg/injection, schedule: Q03DX Z (ip), vehicle: saline 111 % of control | dose: 8.8 mg/kg/injection, schedule: Q07DX Z (ip), vehicle: saline 110 % of control | dose: 10.0 mg/kg/injection, schedule: Q01DX009 (sc), vehicle: propolene glycol 97 % of control | dose: 15.0 mg/kg/injection, schedule: Q03DX Z (ip), vehicle: saline 118 % of control | dose: 17.5 mg/kg/injection, schedule: Q07DX Z (ip), vehicle: saline 115 % of control | dose: 20.0 mg/kg/injection, schedule: Q01DX010 (sc), vehicle: propolene glycol 96 % of control | dose: 20.0 mg/kg/injection, schedule: Q01DX Z (ip), vehicle: saline 123 % of control | dose: 40.0 mg/kg/injection, schedule: Q01DX010 (sc), vehicle: propolene glycol 102 % of control | dose: 50.0 mg/kg/injection, schedule: Q01DX Z (ip), vehicle: methylcellulose (MC) 100 % of control | dose: 64.0 mg/kg/injection, schedule: Q01DX010 (iv), vehicle: saline 97 % of control | dose: 80.0 mg/kg/injection, schedule: Q01DX009 (oral), vehicle: propolene glycol 98 % of control | dose: 80.0 mg/kg/injection, schedule: Q01DX009 (sc), vehicle: propolene glycol 95 % of control | dose: 120.0 mg/kg/injection, schedule: Q01DX009 (oral), vehicle: propolene glycol 98 % of control | dose: 128.0 mg/kg/injection, schedule: Q01DX010 (iv), vehicle: saline 102 % of control | dose: 175.0 mg/kg/injection, schedule: Q01DX001 (ip), vehicle: saline 105 % of control | dose: 222.0 mg/kg/injection, schedule: Q01DX Z (oral), vehicle: saline 116 % of control | dose: 256.0 mg/kg/injection, schedule: Q01DX010 (iv), vehicle: saline 108 % of control | dose: 265.0 mg/kg/injection, schedule: Q01DX001 (ip), vehicle: saline 108 % of control | dose: 270.0 mg/kg/injection, schedule: Q01DX009 (oral), vehicle: propolene glycol 98 % of control | dose: 333.0 mg/kg/injection, schedule: Q01DX Z (oral), vehicle: saline 120 % of control | dose: 405.0 mg/kg/injection, schedule: Q01DX009 (oral), vehicle: propolene glycol 102 % of control | dose: 480.0 mg/kg/injection, schedule: Q03DX Z (ip), vehicle: saline 112 % of control | dose: 960.0 mg/kg/injection, schedule: Q03DX Z (ip), vehicle: saline 86 % of control

CCc1ccc(C(C)(C)C)cc1
inactive: dose: 50.0 mg/kg/injection, schedule: Q01DX009 (ip), vehicle: saline with Tween-80 95 % of control | [2] 95 % of control | [3] 107 % of control

CC(=O)C(=Cc1ccc(Cl)c(Cl)c1)C(C)=O
inactive: [4] 100 % of control | [5] 96 % of control | [6] 96 % of control | [7] 86 % of control

COC(=O)C(CSC(c1ccc(N(C)C)cc1)c1ccc(N(C)C)cc1)NC(=O)OCc1ccccc1 (configuration not stated)
inactive: dose: 75.0 mg/kg/injection, schedule: Q01DX001 (ip), vehicle: carboxymethylcellulose (CMC) 97 % of control | dose: 300.0 mg/kg/injection, schedule: Q01DX001 (ip), vehicle: carboxymethylcellulose (CMC) 94 % of control

O=c1[nH]nnc2nc(Cc3ccc([N+](=O)[O-])cc3)[nH]c12
inactive: dose: 100.0 mg/kg/injection, schedule: Q01DX001 (ip), vehicle: saline with Tween-80 98 % of control

CC(=O)Nc1ccc2c(c1)OCO2
inactive: [2] 101 % of control | dose: 100.0 mg/kg/injection, schedule: Q04DX003 (ip), vehicle: saline with Tween-80 107 % of control | [3] 102 % of control | dose: 200.0 mg/kg/injection, schedule: Q04DX003 (ip), vehicle: saline with Tween-80 108 % of control | dose: 400.0 mg/kg/injection, schedule: Q04DX003 (ip), vehicle: saline with Tween-80 103 % of control

CCOC(=O)C(CCNC(=O)c1ccccc1)C(=O)OCC
inactive: [4] 103 % of control | [5] 93 % of control | [8] 91 % of control | [6] 95 % of control | [9] 89 % of control | [7] 93 % of control

CC(C)(C)C1CCC(O)C(Cl)C1 (configuration not stated)
inactive: [1] 100 % of control | dose: 200.0 mg/kg/injection, schedule: Q01DX009 (ip), vehicle: saline 98 % of control

S=C(N/N=C/c1ccccc1Cl)Nc1ccccc1
inactive: [4] 95 % of control | [8] 100 % of control | [9] 101 % of control

CS(=O)(=O)c1ccc(F)c([N+](=O)[O-])c1
inactive: dose: 25.0 mg/kg/injection, schedule: Q04DX003 (ip), vehicle: Klucel (hydroxypropylcellulose) (HPC) 92 % of control | dose: 50.0 mg/kg/injection, schedule: Q04DX003 (ip), vehicle: Klucel (hydroxypropylcellulose) (HPC) 92 % of control | [5] 95 % of control
